This test addresses human ether-a-go-go-related gene (hERG) potassium channel (Homo sapiens, UniProt Q12809). As to the kind of experiment: whole-cell patch clamp, hERG tail current in hERG-HEK-293 cells. The format is cell-based.

human ether-a-go-go-related gene (hERG) potassium channel, sequence (Q12809 whole entry): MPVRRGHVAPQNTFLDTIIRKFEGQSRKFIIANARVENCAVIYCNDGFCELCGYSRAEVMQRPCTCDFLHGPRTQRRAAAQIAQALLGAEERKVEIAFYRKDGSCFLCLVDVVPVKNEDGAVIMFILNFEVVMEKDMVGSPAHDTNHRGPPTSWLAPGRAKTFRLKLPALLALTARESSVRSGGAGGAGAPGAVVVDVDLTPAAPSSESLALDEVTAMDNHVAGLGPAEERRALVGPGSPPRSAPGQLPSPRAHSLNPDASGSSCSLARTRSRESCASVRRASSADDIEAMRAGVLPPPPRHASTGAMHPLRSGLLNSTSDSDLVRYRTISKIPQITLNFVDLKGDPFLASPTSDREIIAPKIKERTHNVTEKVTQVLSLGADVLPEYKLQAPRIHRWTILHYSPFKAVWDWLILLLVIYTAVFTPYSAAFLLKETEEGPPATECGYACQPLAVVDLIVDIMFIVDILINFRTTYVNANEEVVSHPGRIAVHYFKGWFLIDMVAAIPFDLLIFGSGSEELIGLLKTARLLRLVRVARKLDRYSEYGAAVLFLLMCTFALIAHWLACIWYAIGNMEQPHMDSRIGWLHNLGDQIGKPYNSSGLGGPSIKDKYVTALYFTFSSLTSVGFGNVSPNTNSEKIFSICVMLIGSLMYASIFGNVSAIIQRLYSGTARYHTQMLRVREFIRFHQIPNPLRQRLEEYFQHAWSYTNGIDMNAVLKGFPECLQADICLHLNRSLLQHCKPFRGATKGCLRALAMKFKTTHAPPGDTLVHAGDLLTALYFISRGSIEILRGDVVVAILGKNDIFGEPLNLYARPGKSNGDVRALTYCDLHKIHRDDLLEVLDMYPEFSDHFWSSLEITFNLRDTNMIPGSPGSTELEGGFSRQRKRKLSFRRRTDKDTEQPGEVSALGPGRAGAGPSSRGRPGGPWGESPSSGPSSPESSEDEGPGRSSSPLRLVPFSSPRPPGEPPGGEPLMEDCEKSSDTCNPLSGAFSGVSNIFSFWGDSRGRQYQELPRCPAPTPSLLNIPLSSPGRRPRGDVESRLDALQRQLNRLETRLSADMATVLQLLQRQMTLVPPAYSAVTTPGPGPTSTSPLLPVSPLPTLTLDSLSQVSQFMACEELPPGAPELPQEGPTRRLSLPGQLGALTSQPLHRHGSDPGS

In turn, `CCN(CCO)CCCC(C)Nc1ccnc2cc(Cl)ccc12` (stereo not shown) [HCQ, Hydroxychloroquine] gave an IC50 of 8.6 µM.

The values are drawn from publication PMC8161735 (Toxicology, 2021).
